# Test results taken from patent US20250152580A1, “METHODS FOR TREATING IMMUNE DISEASES” (Ascentage Pharma (Suzhou) co., Ltd., priority 2022, published 2025).
# Entries after “also recorded” stand apart in the source; their conditions may differ.
# Columns and labels:
# Format in all cases: in vivo
# [1] = test system: CD4+CD45RBhigh T transfer IBD model; assay: CD4+CD45RBhigh T transfer inflammatory bowel disease (IBD) model in CB17 SCID mice
# Excerpt: 1. Experimental Protocol for CD4^+CD45RB^high T Transfer Inflammatory Bowel Disease (IBD) Model in CB17 SCID Mice.
# Balb/c mice and CB17 SCID were purchased from Zhejiang Vital River Laboratory Animal Technology Co., Ltd. (Zhejiang, China). Animals were housed and handled in a temperature-controlled environment with a 12-h light/12-h dark cycle. A total of 50 CB17 SCID mice were assigned to 5 groups by randomization based on body weight.
# CD4^+ T cells were isolated from the spleens of Balb/c mice using negative magnetic bead separation kit (Miltenyi Biotec) according to the manufacturers' instructions. The CD4^+CD45RB^high T and CD4^+CD45RB^low T cells were selected by flow cytometry and used for model construction. The isolated CD4^+CD45RB^high T cells were intraperitoneally injected into 40 recipient CB17 SCID mice with 5×10^5 cells per animal. Ten mice in Group 1 (G1) were intraperitoneally injected with 5×10^5 CD4^+CD45RB^low T cells as negative control group.
# 40 recipient CB17 SCID mice injected with CD4^+CD45RB^high T cells were assigned to four groups (n=10 for each group): G2, vehicle control (po, qd, from day 0 to day 42); G3, 30 mg/kg Cpd. 4 (po, qd, from day 0 to day 42); G4, 30 mg/kg Cpd. 4 (po, qd, from day 14 to day 42); G5, 100 mg/kg Cpd. 4 (po, qd, from day 14 to day 42); G6, positive control, anti-mTNF-α 25 mg/kg (ip, Q3D, from day 14 to day 42).
# Clinical signs of IBD were assessed every 3 day based on the scores of disease activity index (DAI) which was evaluated from two parameters using a scoring system from 0 to 4: stool consistency (0, normal stool; 1, soft but still formed stool; 2, soft and not formed stool; 3, very soft and wet stool; 4, watery diarrhea) and body weight loss (0, no body weight loos; 1, 1-5% body weight loss; 2, 6-10% body weight loss; 3, 11-20% body weight loss; 4, >20% body weight loss).
# At the end of experiment, the animals were euthanized, dissected and the entire colon was quickly removed and gently cleared of feces.
# The entire colon was weighed, and the total length was measured. […] Cpd.
# The colons were Swiss-rolled and fixed with neutralized PFA followed by H&E staining. After that, the pathologists from WuXi clinical pathological analysis platform, who were blinded to animal ID, reviewed the H&E staining and scored. […]
# At the end of the study (day 42), all the animals were sacrificed by CO2, and the colon tissues were collected and fixed in 10% formalin for pathological analysis (H&E and LFB staining). The histopathological score was evaluated microscopically in a blinded manner.
# [2] = test system: IMQ induced psoriasis model; assay: IMQ induced psoriasis model in Balb/c mice; conditions: Cpd. 4 100 mg/kg po qd day 0-6
# Excerpt: Imiquimod (IMQ) is a ligand for TLRs (Toll-like receptors) of immune cells (including macrophages, monocytes and plasmacytoid dendritic cells), and therefore contributes to strong activation of the immune system.
# Female Balb/c mice (7-8 weeks old) were obtained from B&K Universal Animal Co. Ltd. Animals were housed and handled in a temperature-controlled environment with a 12-h light/12-h dark cycle. A total of 36 mice were assigned to 4 groups by randomization based on body weight (6 mice in normal control group and 10 mice in other 3 groups).
# At the beginning of the study on day 0, five groups were administered a daily topical dose of 80 mg of a cream preparation containing 5% IMQ on their hair-free backs to establish a model of IMQ-induced psoriasis for seven consecutive days. The G1 normal control group received appropriate vaseline.
# Mice in Group 1 and Group 2 were treated with vehicle for 7 days (po, qd, from day 0 to day 6). Mice in Group 3 were treated with 100 mg/kg Cpd. 4 for 7 days (po, qd, from day 0 to day 6). Mice in Group 4 were treated with 30 mg/kg tofacitinib for 7 days (po, bid, from day 0 to day 6). The protocols and procedures involving the care and use of animals were approved by the Institutional Animal Care and Use Committee (IACUC) at KCI (Suzhou, China).
# The severity of skin inflammation was monitored and graded using a modified human scoring system Psoriasis Area Severity Index (PASI). Scaling, thickness, and erythema were scored separately on a scale from 0 to 4:0, none; 1, slight; 2, moderate; 3, marked; and 4, very marked. The total score denotes severity of inflammation. Ear thickness of mice was measured every day from day 0 to day 7.
# Ear thickness of mice was measured every day from day 0 to day 7. […] Compared with G1 normal control group, after IMQ treatment, ear swelling was observed indicated by increased ear thickness in G2 group reaching the maximal ear thickness to 0.40±0.02 mm on day 7. Cpd.
# [3] = test system: OXA induced DTH model; assay: OXA induced delayed type hypersensitivity (DTH) model in Balb/c mice
# Excerpt: A delayed-type hypersensitivity (DTH) reaction is an expression of cell-mediated immunity and plays a major role in the pathology and chronicity of many inflammatory disorders. Delayed-type hypersensitivity (DTH) reactions can be induced by allergens, including oxazolone.
# Female Balb/c mice (6-8 weeks old) were obtained from Shanghai Jihui Experiment Animal Feeding Co. Ltd. Animals were housed and handled in a temperature-controlled environment with a 12-h light/12-h dark cycle. A total of 48 mice were assigned to 6 groups by randomization based on body weight.
# To induce DTH, all right ears of mice except the G1 sham control group were applied with oxazolone (OXA). Briefly, skin inflammation was induced by topical administration with 100 μL of 1.5% OXA dissolved in acetone/olive oil on day 1 and repeated 20 μL of 1% OXA on day 6. G1 sham control group was treated same volume of vehicles. Therapeutic group of 100 mg/kg Cpd. 4 (po, 0 h/6 h after challenge on day 6) or 0.05 mg/ear dexamethasone (topical, 1 h/6 h after challenge on day 6) were applied to the mice. […]
# Ear thickness were measured with a micrometer before challenge on day 6 and 24 h after oxazolone challenge on Day 7 and reported as the mean change in ear thickness. […]
smiles,measurement,setting,value
"O=C(NS(=O)(=O)c1ccc(NC[C@H]2COCCO2)c([N+](=O)[O-])c1)c1ccc(N2CCN(CC3=C(c4ccc(Cl)cc4)CC4(CCC4)CC3)CC2)cc1Oc1cnc2[nH]ccc2c1 [Cpd. 4, (S)-N-((4-(((1,4-dioxan-2-yl)methyl)amino)-3-nitrophenyl)sulfonyl)-2-((1H-pyrrolo[2,3-b]pyridin-5-yl)oxy)-4-(4-((6-(4-chlorophenyl)spiro[3.5]non-6-en-7-yl)methyl)piperazin-1-yl)benzamide]","disease activity index (DAI), clinical score of IBD","[1]; Cpd. 4 po qd: G3 30 mg/kg day 0-42, G4 30 mg/kg day 14-42, G5 100 mg/kg day 14-42, anti-mTNF-α 25 mg/kg ip Q3D day 14-42, compared with Vehicle",significantly reducing the clinical score; also recorded: significantly reduced
same,"pathological score (colon, H&E)","[1]; day 42, all Cpd. 4 groups, compared with Vehicle",significantly reduced; also recorded: significantly decreased
same,colon weight,"[1]; end of experiment, Cpd. 4 all treatment groups (G3, G4, G5), anti-mTNF-α 25 mg/kg ip Q3D, vehicle 439.1 mg",significantly decreased
same,colon length,"[1]; end of experiment, Cpd. 4 in G3 (30 mg/kg day 0-42) and G5 (100 mg/kg day 14-42), anti-mTNF-α 25 mg/kg ip Q3D, vehicle 7.72 cm",significantly increased
same,ear thickness,[2]; compared with Vehicle (0.40±0.02 mm day 7) and tofacitinib 30 mg/kg po bid,significantly reducing the ear thickness; also recorded: comparable to that of tofacitinib; also recorded: significantly reduced
same,PASI score (Psoriasis Area Severity Index),"[2]; tofacitinib 30 mg/kg po bid, compared with Vehicle",significantly reducing the clinical PASI score; also recorded: significantly reduced
same,increase of ear thickness (day 7 − day 6),"[3]; 100 mg/kg po 0 h/6 h after challenge on day 6, vehicle 0.24±0.01 mm",0.22±0.03 mm
same,increase of ear thickness (in words),"[3]; Cpd. 4 100 mg/kg po, dexamethasone 0.05 mg/ear topical 1 h/6 h after challenge on day 6",moderately reduced
